pIC50: −log10 of the molar value. Numbered stars: 1 amine (or outer) side, 2 acyl side, 3 side chain; on linkers, the order of the positions; unused ones are H or OH. Bridge positions count the residues as written; N and C are the ends. Square brackets hold non-standard residues; d marks the D form. Peptide text beside a SMILES is read from it. * marks the point of attachment. hPhe(3-Cl-4-CF3) = N[C@@H](CCc1ccc(C(F)(F)F)c(Cl)c1)C(=O)O; NMePhe(4-CF3) = CN[C@@H](Cc1ccc(C(F)(F)F)cc1)C(=O)O; X111 = CN([C@@H](CCC1CCOCC1)C(=O)[*:2])[*:1]; NMePhe(4-Me) = CN[C@@H](Cc1ccc(C)cc1)C(=O)O; NMedβ3hAla = C[C@H](CC(=O)[*:2])N(C)[*:1]; NMeGly(cPent) = CN[C@H](C(=O)O)C1CCCC1; Phe(3-I) = N[C@@H](Cc1cccc(I)c1)C(=O)O; NMeCha = CN[C@@H](CC1CCCCC1)C(=O)O; NMeChg = CN[C@H](C(=O)O)C1CCCCC1; N(CH2CH2)2CF2 = FC1(F)CCN(*)CC1; NMeD = CN[C@@H](CC(=O)O)C(=O)O; NMeL = CN[C@@H](CC(C)C)C(=O)O; NMeV = CN[C@H](C(=O)O)C(C)C; d(β3hA) = C[C@@H](N)CC(=O)O; NMeA = CN[C@@H](C)C(=O)O; NMeAib = CNC(C)(C)C(=O)O; Piperidide = C1CCN(*)CC1; dNMeA = CN[C@H](C)C(=O)O; Ac5c = NC1(C(=O)O)CCCC1; Aze = O=C(O)[C@@H]1CCN1; Sar = CNCC(=O)O

The term pIC50 denotes the IC50 on a negative log10 scale, so that one unit is a factor of ten.

The target of the assay is protein-protein interaction between Kras and SOS1 (biotin-tagged human Kras loaded with GDP, His-tagged human SOS1) (Homo sapiens (Human), UniProt P01116, G12D). Briefly: Protein-protein interaction inhibition between Kras and SOS1 (KrasG12D-SOS PPI) using AlphaScreen.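 Note: kras produced in E. coli, Ni-coupled donor beads and streptavidin acceptor beads, excitation 680 nm with emission detected at 520–620 nm via singlet oxygen transfer.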 The assay is classed as biochemical. The settings on record: AlphaScreen; biotin-tagged human Kras loaded with GDP, His-tagged human SOS1; read-out: KRAS G12D-SOS PPI IC50. In general terms: In Alpha technology, singlet oxygen from a donor bead excites a nearby acceptor bead.
Turning to `CC[C@H](C)[C@@H]1NC(=O)[C@H](CC(C)C)N(C)C(=O)C[C@@H](C(=O)N2CCCCC2)N(C)C(=O)[C@H](C2CCCCC2)N(C)C(=O)C2(CCCC2)NC(=O)[C@H](CCC2CCOCC2)N(C)C(=O)[C@H](CCc2ccc(C(F)(F)F)c(Cl)c2)NC(=O)CN(C)C(=O)[C@H](CC2CCCCC2)N(C)C(=O)CN(C)C(=O)CN(C)C1=O` [Compound 2048, (8S,11S,17S,26S,29S,33S,36S)-11-[2-[3-chloro-4-(trifluoromethyl)phenyl]ethyl]-36-cyclohexyl-17-(cyclohexylmethyl)-29-isobutyl-9,15,18,21,24,30,34,37-octamethyl-26-[(1S)-1-methylpropyl]-33-(piperidine-1-carbonyl)-8-(2-tetrahydropyran-4-ylethyl)-6,9,12,15,18,21,24,27,30,34,37-undecazaspiro[4.33]octatriacontane-7,10,13,16,19,22,25,28,31,35,38-undecone] ([NMeL]I[Sar][Sar][NMeCha][Sar][hPhe(3-Cl-4-CF3)][X111][Ac5c][NMeChg][NMeD]-Piperidide; lactam N-11), the pIC50 was 8.46.

With `CC[C@H](C)[C@@H]1NC(=O)[C@H](C)N(C)C(=O)C[C@@H](C)N(C)C(=O)[C@H](CC(C)C)NC(=O)C(C)(C)N(C)C(=O)[C@H](CC(C)C)NC(=O)[C@H](CCc2ccc(C(F)(F)F)c(Cl)c2)NC(=O)[C@@H](C)N(C)C(=O)[C@H](CC2CCCCC2)N(C)C(=O)CN(C)C(=O)CN(C)C1=O` [Compound 1390] (cyclo(I[Sar][Sar][NMeCha][dNMeA][hPhe(3-Cl-4-CF3)]L[NMeAib]L[NMedβ3hAla][NMeA])), the pIC50 is 6.55.

Take `CC[C@H](C)[C@@H]1NC(=O)[C@H](CC(C)C)N(C)C(=O)C[C@@H](C(=O)N2CCC(F)(F)CC2)N(C)C(=O)[C@H](CC(C)C)NC(=O)C(C)(C)N(C)C(=O)[C@H](Cc2ccc(OC)cc2)NC(=O)[C@H](Cc2cccc(I)c2)NC(=O)CN(C)C(=O)[C@H](Cc2ccc(C)cc2)N(C)C(=O)CN(C)C(=O)CN(C)C1=O` [Compound 2101, (3S,9S,12S,18S,27S,30S,34S)-34-(4,4-difluoropiperidine-1-carbonyl)-12-[(3-iodophenyl)methyl]-3,30-diisobutyl-9-[(4-methoxyphenyl)methyl]-1,6,6,7,16,19,22,25,31-nonamethyl-27-[(1S)-1-methylpropyl]-18-(p-tolylmethyl)-1,4,7,10,13,16,19,22,25,28,31-undecazacyclotetratriacontane-2,5,8,11,14,17,20,23,26,29,32-undecone] ([NMeL]I[Sar][Sar][NMePhe(4-Me)][Sar][Phe(3-I)]Y(Me)[NMeAib]L[NMeD]-{N(CH2CH2)2CF2}; lactam N-11): the pIC50 is 7.28.

For the molecule `CC[C@H](C)[C@@H]1NC(=O)[C@H](C)N(C)C(=O)C[C@@H](C)NC(=O)[C@H](C2CCCC2)N(C)C(=O)C2(CCCC2)NC(=O)[C@@H]2CCCN2C(=O)[C@H](CCc2ccc(C(F)(F)F)c(Cl)c2)NC(=O)CN(C)C(=O)[C@H](Cc2ccc(C(F)(F)F)cc2)N(C)C(=O)[C@@H]2CCN2C(=O)[C@H](C)N(C)C1=O` [Compound 1512] (cyclo([Ac5c][NMeGly(cPent)][d(β3hA)][NMeA]I[NMeA][Aze][NMePhe(4-CF3)][Sar][hPhe(3-Cl-4-CF3)]P)), the pIC50 was 8.92.

As for `CC[C@H](C)[C@@H]1NC(=O)[C@H](CC2CCCCC2)N(C)C(=O)C[C@@H](C(=O)N2CCCCC2)N(C)C(=O)[C@H](C(C)C)N(C)C(=O)C2(CCCC2)NC(=O)[C@@H]2CCCN2C(=O)[C@H](CCc2ccc(C(F)(F)F)c(Cl)c2)NC(=O)CN(C)C(=O)[C@H](CC2CCCCC2)N(C)C(=O)[C@@H]2CCN2C(=O)[C@H](C)N(C)C1=O` [Compound 572] ([NMeCha]I[NMeA][Aze][NMeCha][Sar][hPhe(3-Cl-4-CF3)]P[Ac5c][NMeV][NMeD]-Piperidide; lactam N-11), the negative-log IC50 (pIC50) is 7.41.

Source of the values: US20240148821A1, “PHARMACEUTICAL USE OF CYCLIC PEPTIDE COMPOUND” (CHUGAI SEIYAKU KABUSHIKI KAISHA, priority 2021, published 2024).
